According to patent publication US10647713B2 (Nimbus Lakshmi, Inc., priority 2016, dated 2020):

target: human TYK2 (JH2domain-pseudokinase) (Homo sapiens (Human), UniProt P29597); test: TYK2 JH2 Domain Binding Assay (KINOMEscan, DiscoveRx); conditions: 11-point dilution, duplicate
Method in brief: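 Kd from duplicate 11-point 3-fold dilutions starting at 30,000 nM, fitted by Hill equation with slope fixed at −1. Compounds (final 0.9% DMSO) displace DNA-tagged HEK293-expressed TYK2 JH2 fusion (<0.1 nM) from ligand-coated beads over 1 h at room temperature; eluted kinase read by qPCR.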

human TYK2 (JH2domain-pseudokinase), sequence (P29597 556-888): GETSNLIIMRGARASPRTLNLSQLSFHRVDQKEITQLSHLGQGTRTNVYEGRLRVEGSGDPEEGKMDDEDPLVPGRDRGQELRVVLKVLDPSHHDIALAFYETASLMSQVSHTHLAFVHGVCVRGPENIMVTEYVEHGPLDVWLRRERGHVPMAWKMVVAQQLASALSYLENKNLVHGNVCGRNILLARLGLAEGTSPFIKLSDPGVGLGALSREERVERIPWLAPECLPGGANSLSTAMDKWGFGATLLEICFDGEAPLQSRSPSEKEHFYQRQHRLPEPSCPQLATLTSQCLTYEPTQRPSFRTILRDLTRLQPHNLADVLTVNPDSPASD

Row | Kd [nM] | Compound
1 | < 0.1 | Cc1c(-c2ccc(Nc3cc(Nc4cc5n(n4)CCOC5)nc4[nH]c(C(F)F)nc34)c(S(C)(=O)=O)c2)cnn1C [I-491, 2-(difluoromethyl)-N5-(6,7-dihydro-4H-pyrazolo[5,1-c][1,4]oxazin-2-yl)-N7-(4-(1,5-dimethyl-1H-pyrazol-4-yl)-2-(methylsulfonyl)phenyl)-3H-imidazo[4,5-b]pyridine-5,7-diamine]
2 | < 0.1 | Cc1nc2c(Nc3ccc(-c4cnn(C)c4C)cc3S(C)(=O)=O)cc(Nc3cc4n(n3)CCOC4)nc2[nH]1 [I-492, N5-(6,7-dihydro-4H-pyrazolo[5,1-c][1,4]oxazin-2-yl)-N7-(4-(1,5-dimethyl-1H-pyrazol-4-yl)-(methylsulfonyl)phenyl)-2-methyl-3H-imidazo[4,5-b]pyridine-5,7-diamine]
3 | < 0.1 | Cc1cc(Nc2cc(Nc3ccc([C@H]4CCCCO4)cc3S(C)(=O)=O)c3nc(C(F)F)[nH]c3n2)nc(C)n1 [I-494, (R)-2-(difluoromethyl)-N5-(2,6-dimethylpyrimidin-4-yl)-N7-(2-(methylsulfonyl)-4-(tetrahydro-2H-pyran-2-yl)phenyl)-3H-imidazo[4,5-b]pyridine-5,7-diamine]
4 | 0.1 to 0.5 | Cc1cc(Nc2cc(Nc3ccc([C@@H]4CCCCO4)cc3S(C)(=O)=O)c3nc(C(F)F)[nH]c3n2)nc(C)n1 [I-505, (S)-2-(difluoromethyl)-N5-(2,6-dimethylpyrimidin-4-yl)-N7-(2-(methylsulfonyl)-4-(tetrahydro-2H-pyran-2-yl)phenyl)-3H-imidazo[4,5-b]pyridine-5,7-diamine]
5 | < 0.1 | Cc1nc2c(Nc3ccc(-c4cc(C)n(C)n4)cc3S(C)(=O)=O)cc(Nc3cc4n(n3)CCOC4)nc2[nH]1 [I-514, N5-(6,7-dihydro-4H-pyrazolo[5,1-c][1,4]oxazin-2-yl)-N7-(4-(1,5-dimethyl-1H-pyrazol-3-yl)-2-(methylsulfonyl)phenyl)-2-methyl-3H-imidazo[4,5-b]pyridine-5,7-diamine]
6 | < 0.1 | CS(=O)(=O)c1cc([C@H]2CCCCO2)ccc1Nc1cc(Nc2cc3n(n2)CCOC3)nc2[nH]c(C(F)F)nc12 [I-515, (R)-2-(difluoromethyl)-N5-(6,7-dihydro-4H-pyrazolo[5,1-c][1,4]oxazin-2-yl)-N7-(2-(methylsulfonyl)-4-(tetrahydro-2H-pyran-2-yl)phenyl)-3H-imidazo[4,5-b]pyridine-5,7-diamine]
7 | 0.1 to 0.5 | CS(=O)(=O)c1cc([C@@H]2CCCCO2)ccc1Nc1cc(Nc2cc3n(n2)CCOC3)nc2[nH]c(C(F)F)nc12 [I-516, (S)-2-(difluoromethyl)-N5-(6,7-dihydro-4H-pyrazolo[5,1-c][1,4]oxazin-2-yl)-N7-(2-(methylsulfonyl)-4-(tetrahydro-2H-pyran-2-yl)phenyl)-3H-imidazo[4,5-b]pyridine-5,7-diamine]
8 | 0.5 to 1 | CS(=O)(=O)c1cc([C@H]2CCCCO2)ccc1Nc1cc(Nc2cccc(C(F)(F)F)n2)nc2[nH]c(C(F)F)nc12 [I-517, (R)-2-(difluoromethyl)-N7-(2-(methylsulfonyl)-4-(tetrahydro-2H-pyran-2-yl)phenyl)-N5-(6-(trifluoromethyl)pyridin-2-yl)-3H-imidazo[4,5-b]pyridine-5,7-diamine]

Further lines, the compound ahead of its results:

Row | Compound | Kd [nM]
9 | Cc1nc2c(Nc3ccccc3S(C)(=O)=O)cc(Nc3ccc(C(C)C)c(C#N)n3)nc2[nH]1 [I-490, 3-isopropyl-6-((2-methyl-7-((2-(methylsulfonyl)phenyl)amino)-3H-imidazo[4,5-b]pyridin-5-yl)amino)picolinonitrile] | 0.1 to 0.5
10 | Cc1c(-c2ccc(Nc3cc(Nc4cccc(C(F)(F)F)n4)nc4[nH]c(C(F)F)nc34)c(S(C)(=O)=O)c2)cnn1C [I-493, 2-(difluoromethyl)-N7-(4-(1,5-dimethyl-1H-pyrazol-4-yl)-2-(methylsulfonyl)phenyl)-N5-(6-(trifluoromethyl)pyridin-2-yl)-3H-imidazo[4,5-b]pyridine-5,7-diamine] | 0.1 to 0.5
11 | Cc1cnc(-c2ccc(Nc3cc(Nc4cc5n(n4)CCOC5)nc4[nH]c(C(F)F)nc34)c(S(C)(=O)=O)c2)s1 [I-495, 2-(difluoromethyl)-N5-(6,7-dihydro-4H-pyrazolo[5,1-c][1,4]oxazin-2-yl)-N7-(2-(methylsulfonyl)-4-(5-methylthiazol-2-yl)phenyl)-3H-imidazo[4,5-b]pyridine-5,7-diamine] | 0.1 to 0.5
12 | Cc1nc2c(Nc3ccc(-c4ncc(C)s4)cc3S(C)(=O)=O)cc(Nc3cc4n(n3)CCOC4)nc2[nH]1 [I-496, N5-(6,7-dihydro-4H-pyrazolo[5,1-c][1,4]oxazin-2-yl)-2-methyl-N7-(2-(methylsulfonyl)-4-(5-methylthiazol-2-yl)phenyl)-3H-imidazo[4,5-b]pyridine-5,7-diamine] | 0.1 to 0.5
13 | CC1(C)CC[C@H](c2ccc(Nc3cc(NC(=O)C4CC4)nc4[nH]c(C(F)F)nc34)c(S(C)(=O)=O)c2)O1 [I-498, (R)—N-(2-(difluoromethyl)-7-((4-(5,5-dimethyltetrahydrofuran-2-yl)-2-(methylsulfonyl)phenyl)amino)-3H-imidazo[4,5-b]pyridin-5-yl)cyclopropanecarboxamide] | 0.1 to 0.5
14 | CC1(C)CC[C@@H](c2ccc(Nc3cc(NC(=O)C4CC4)nc4[nH]c(C(F)F)nc34)c(S(C)(=O)=O)c2)O1 [I-499, (S)—N-(2-(difluoromethyl)-7-((4-(5,5-dimethyltetrahydrofuran-2-yl)-2-(methylsulfonyl)phenyl)amino)-3H-imidazo[4,5-b]pyridin-5-yl)cyclopropanecarboxamide] | 1 to 10
15 | COCc1nc(-c2ccc(Nc3cc(NC(=O)C4CC4)nc4[nH]c(C(F)F)nc34)c(S(C)(=O)=O)c2)sc1C [I-500, N-(2-(difluoromethyl)-7-((4-(4-(methoxymethyl)-5-methylthiazol-2-yl)-2-(methylsulfonyl)phenyl)amino)-3H-imidazo[4,5-b]pyridin-5-yl)cyclopropanecarboxamide] | 0.1 to 0.5
16 | COCCCn1ccc(-c2ccc(Nc3cc(NC(=O)C4CC4)nc4[nH]c(C(F)F)nc34)c(S(C)(=O)=O)c2)n1 [I-501, N-(2-(difluoromethyl)-7-((4-(1-(3-methoxypropyl)-1H-pyrazol-3-yl)-2-(methylsulfonyl)phenyl)amino)-3H-imidazo[4,5-b]pyridin-5-yl)cyclopropanecarboxamide] | 0.1 to 0.5
17 | COCCCn1ccc(-c2ccc(Nc3cc(NC(=O)C4CC4)nc4[nH]c(C)nc34)c(S(C)(=O)=O)c2)n1 [I-502, N-(7-((4-(1-(3-methoxypropyl)-1H-pyrazol-3-yl)-2-(methylsulfonyl)phenyl)amino)-2-methyl-3H-imidazo[4,5-b]pyridin-5-yl)cyclopropanecarboxamide] | 0.1 to 0.5
18 | Cc1nc2c(Nc3ccc(-c4ncc(C)s4)cc3S(C)(=O)=O)cc(Nc3cccc(C#N)n3)nc2[nH]1 [I-503, 6-((2-methyl-7-((2-(methylsulfonyl)-4-(5-methylthiazol-2-yl)phenyl)amino)-3H-imidazo[4,5-b]pyridin-5-yl)amino)picolinonitrile] | 0.1 to 0.5
19 | Cc1csc(-c2ccc(Nc3cc(Nc4cccc(C#N)n4)nc4[nH]c(C)nc34)c(S(C)(=O)=O)c2)n1 [I-504, 6-((2-methyl-7-((2-(methylsulfonyl)-4-(4-methylthiazol-2-yl)phenyl)amino)-3H-imidazo[4,5-b]pyridin-5-yl)amino)picolinonitrile] | 0.1 to 0.5
20 | Cc1nc2c(Nc3ccc(-c4nc(C)c(C)s4)cc3S(C)(=O)=O)cc(Nc3cccc(C#N)n3)nc2[nH]1 [I-506, 6-((7-((4-(4,5-dimethylthiazol-2-yl)-2-(methylsulfonyl)phenyl)amino)-2-methyl-3H-imidazo[4,5-b]pyridin-5-yl)amino)picolinonitrile] | 0.5 to 1
21 | Cc1nc(-c2ccc(Nc3cc(Nc4cccc(C#N)n4)nc4[nH]c(C(F)F)nc34)c(S(C)(=O)=O)c2)sc1C [I-507, 6-((2-(difluoromethyl)-7-((4-(4,5-dimethylthiazol-2-yl)-2-(methylsulfonyl)phenyl)amino)-3H-imidazo[4,5-b]pyridin-5-yl)amino)picolinonitrile] | 1 to 10
22 | Cc1nc2c(Nc3ccc(-c4cc(C)n(C)n4)cc3S(C)(=O)=O)cc(Nc3cnc(C)c(C)n3)nc2[nH]1 [I-508, N7-(4-(1,5-dimethyl-1H-pyrazol-3-yl)-2-(methylsulfonyl)phenyl)-N5-(5,6-dimethylpyrazin-2-yl)-2-methyl-3H-imidazo[4,5-b]pyridine-5,7-diamine] | < 0.1
23 | Cc1cc(Nc2cc(Nc3ccc(-c4cc(C)n(C)n4)cc3S(C)(=O)=O)c3nc(C)[nH]c3n2)nc(C)n1 [I-509, N7-(4-(1,5-dimethyl-1H-pyrazol-3-yl)-2-(methylsulfonyl)phenyl)-N5-(2,6-dimethylpyrimidin-4-yl)-2-methyl-3H-imidazo[4,5-b]pyridine-5,7-diamine] | < 0.1
24 | Cc1cc(Nc2cc(Nc3ccc(-c4nn(C)cc4C)cc3S(C)(=O)=O)c3nc(C(F)F)[nH]c3n2)nc(C)n1 [I-510, 2-(difluoromethyl)-N7-(4-(1,4-dimethyl-1H-pyrazol-3-yl)-2-(methylsulfonyl)phenyl)-N5-(2,6-dimethylpyrimidin-4-yl)-3H-imidazo[4,5-b]pyridine-5,7-diamine] | < 0.1
25 | Cc1cc(Nc2cc(Nc3ccc(-c4nn(C)cc4C)cc3S(C)(=O)=O)c3nc(C)[nH]c3n2)nc(C)n1 [I-511, N7-(4-(1,4-dimethyl-1H-pyrazol-3-yl)-2-(methylsulfonyl)phenyl)-N5-(2,6-dimethylpyrimidin-4-yl)-2-methyl-3H-imidazo[4,5-b]pyridine-5,7-diamine] | < 0.1
26 | COCc1nc(-c2ccc(Nc3cc(NC(=O)C4CC4)nc4[nH]c(C)nc34)c(S(C)(=O)=O)c2)sc1C [I-512, N-(7-((4-(4-(methoxymethyl)-5-methylthiazol-2-yl)-2-(methylsulfonyl)phenyl)amino)-2-methyl-3H-imidazo[4,5-b]pyridin-5-yl)cyclopropanecarboxamide] | < 0.1
27 | Cc1cnc(-c2ccc(Nc3cc(Nc4cccc(C#N)n4)nc4[nH]c(C(F)F)nc34)c(S(C)(=O)=O)c2)s1 [I-513, 6-((2-(difluoromethyl)-7-((2-(methylsulfonyl)-4-(5-methylthiazol-2-yl)phenyl)amino)-3H-imidazo[4,5-b]pyridin-5-yl)amino)picolinonitrile] | 0.5 to 1
